Measured values as given in the NIST ThermoML archive (doi:10.1007/s10765-006-0063-0).
Numbers after ± are expanded uncertainties.

Tests used:
[1] = 101.33 kPa, Liquid; for speed of sound: Sing-around technique in a fixed-path interferometer
[2] = xn = mol fraction of the nth substance listed; settings: 101 kPa, Liquid, Sing-around technique in a fixed-path interferometer

C1COCCO1 [1,4-dioxane]
mass density ([1]; 283.15 K): 1045.2 ± 0.5 kg/m3 | speed of sound ([1]; 283.15 K): 1409.6 ± 2.1 m/s | mass density ([1]; 298.15 K): 1027.9 ± 0.4 kg/m3 | speed of sound ([1]; 298.15 K): 1343.6 ± 2.1 m/s | mass density ([1]; 313.15 K): 1011 ± 0.4 kg/m3 | speed of sound ([1]; 313.15 K): 1278.8 ± 2.1 m/s

c1ccccc1 [benzene]
mass density ([1]; 283.15 K): 889.9 ± 0.2 kg/m3 | speed of sound ([1]; 283.15 K): 1368.7 ± 2.1 m/s | mass density ([1]; 298.15 K): 873.5 ± 0.2 kg/m3 | speed of sound ([1]; 298.15 K): 1298.3 ± 2.1 m/s | mass density ([1]; 313.15 K): 857.5 ± 0.2 kg/m3 | speed of sound ([1]; 313.15 K): 1229.5 ± 2.1 m/s

C1COCCO1 [1,4-dioxane] + c1ccccc1
speed of sound ([2]; 283.15 K, x1 = 0.0521): 1370.8 ± 2.1 m/s | speed of sound ([2]; 283.15 K, x1 = 0.0942): 1372.6 ± 2.1 m/s | speed of sound ([2]; 283.15 K, x1 = 0.1987): 1376.5 ± 2.1 m/s | speed of sound ([2]; 283.15 K, x1 = 0.2956): 1380.2 ± 2.1 m/s | speed of sound ([2]; 283.15 K, x1 = 0.3936): 1383.8 ± 2.1 m/s | speed of sound ([2]; 283.15 K, x1 = 0.4947): 1387.4 ± 2.1 m/s | speed of sound ([2]; 283.15 K, x1 = 0.5964): 1391.1 ± 2.1 m/s | speed of sound ([2]; 283.15 K, x1 = 0.6956): 1395.1 ± 2.1 m/s | speed of sound ([2]; 283.15 K, x1 = 0.7963): 1399.3 ± 2.1 m/s | speed of sound ([2]; 283.15 K, x1 = 0.8949): 1404.1 ± 2.1 m/s | speed of sound ([2]; 283.15 K, x1 = 0.9526): 1407.1 ± 2.1 m/s | speed of sound ([2]; 298.15 K, x1 = 0.0516): 1300.8 ± 2.1 m/s | speed of sound ([2]; 298.15 K, x1 = 0.0888): 1302.4 ± 2.1 m/s | speed of sound ([2]; 298.15 K, x1 = 0.1966): 1307.3 ± 2.1 m/s | speed of sound ([2]; 298.15 K, x1 = 0.316): 1312.2 ± 2.1 m/s | speed of sound ([2]; 298.15 K, x1 = 0.4145): 1316.3 ± 2.1 m/s | speed of sound ([2]; 298.15 K, x1 = 0.5004): 1320 ± 2.1 m/s | speed of sound ([2]; 298.15 K, x1 = 0.5975): 1324.1 ± 2.1 m/s | speed of sound ([2]; 298.15 K, x1 = 0.6932): 1328.4 ± 2.1 m/s | speed of sound ([2]; 298.15 K, x1 = 0.7962): 1333.1 ± 2.1 m/s | speed of sound ([2]; 298.15 K, x1 = 0.8938): 1338 ± 2.1 m/s | speed of sound ([2]; 298.15 K, x1 = 0.9535): 1341.1 ± 2.1 m/s | speed of sound ([2]; 313.15 K, x1 = 0.0568): 1232.1 ± 2.1 m/s | speed of sound ([2]; 313.15 K, x1 = 0.0913): 1233.6 ± 2.1 m/s | speed of sound ([2]; 313.15 K, x1 = 0.2021): 1239.2 ± 2.1 m/s | speed of sound ([2]; 313.15 K, x1 = 0.2963): 1243.7 ± 2.1 m/s | speed of sound ([2]; 313.15 K, x1 = 0.3981): 1248.6 ± 2.1 m/s | speed of sound ([2]; 313.15 K, x1 = 0.4975): 1253.1 ± 2.1 m/s | speed of sound ([2]; 313.15 K, x1 = 0.5981): 1257.9 ± 2.1 m/s | speed of sound ([2]; 313.15 K, x1 = 0.6972): 1262.7 ± 2.1 m/s | speed of sound ([2]; 313.15 K, x1 = 0.7941): 1267.5 ± 2.1 m/s | speed of sound ([2]; 313.15 K, x1 = 0.9034): 1273.3 ± 2.1 m/s | speed of sound ([2]; 313.15 K, x1 = 0.9424): 1275.5 ± 2.1 m/s

C1COCO1 [1,3-dioxolane] + c1ccccc1
speed of sound ([2]; 283.15 K, x1 = 0.1037): 1373.9 ± 2.1 m/s | speed of sound ([2]; 283.15 K, x1 = 0.2005): 1377.2 ± 2.1 m/s | speed of sound ([2]; 283.15 K, x1 = 0.2977): 1380.5 ± 2.1 m/s | speed of sound ([2]; 283.15 K, x1 = 0.4007): 1383.5 ± 2.1 m/s | speed of sound ([2]; 283.15 K, x1 = 0.4995): 1386.6 ± 2.2 m/s | speed of sound ([2]; 283.15 K, x1 = 0.5967): 1389.7 ± 2.2 m/s | speed of sound ([2]; 283.15 K, x1 = 0.6984): 1393.7 ± 2.2 m/s | speed of sound ([2]; 283.15 K, x1 = 0.7942): 1397.3 ± 2.3 m/s | speed of sound ([2]; 283.15 K, x1 = 0.8973): 1401.7 ± 2.3 m/s | speed of sound ([2]; 298.15 K, x1 = 0.1): 1303.1 ± 2.1 m/s | speed of sound ([2]; 298.15 K, x1 = 0.2022): 1306.8 ± 2.1 m/s | speed of sound ([2]; 298.15 K, x1 = 0.3002): 1310.1 ± 2.1 m/s | speed of sound ([2]; 298.15 K, x1 = 0.4021): 1313.6 ± 2.1 m/s | speed of sound ([2]; 298.15 K, x1 = 0.4957): 1317 ± 2.2 m/s | speed of sound ([2]; 298.15 K, x1 = 0.5968): 1320.7 ± 2.2 m/s | speed of sound ([2]; 298.15 K, x1 = 0.6965): 1325.1 ± 2.2 m/s | speed of sound ([2]; 298.15 K, x1 = 0.7985): 1329.4 ± 2.2 m/s | speed of sound ([2]; 298.15 K, x1 = 0.8973): 1334.2 ± 2.3 m/s | speed of sound ([2]; 313.15 K, x1 = 0.1006): 1233.5 ± 2.1 m/s | speed of sound ([2]; 313.15 K, x1 = 0.2): 1237.2 ± 2.1 m/s | speed of sound ([2]; 313.15 K, x1 = 0.2985): 1240.9 ± 2.1 m/s | speed of sound ([2]; 313.15 K, x1 = 0.4136): 1245.1 ± 2.1 m/s | speed of sound ([2]; 313.15 K, x1 = 0.4928): 1248.1 ± 2.2 m/s | speed of sound ([2]; 313.15 K, x1 = 0.5953): 1252 ± 2.2 m/s | speed of sound ([2]; 313.15 K, x1 = 0.6979): 1256.3 ± 2.2 m/s | speed of sound ([2]; 313.15 K, x1 = 0.7968): 1261.2 ± 2.2 m/s | speed of sound ([2]; 313.15 K, x1 = 0.8979): 1266.3 ± 2.3 m/s

C1COCCO1 [1,4-dioxane] + C1CCCCC1
speed of sound ([2]; 283.15 K, x1 = 0.0502): 1323.1 ± 2.1 m/s | speed of sound ([2]; 283.15 K, x1 = 0.0999): 1319.7 ± 2.1 m/s | speed of sound ([2]; 283.15 K, x1 = 0.1953): 1315.8 ± 2.1 m/s | speed of sound ([2]; 283.15 K, x1 = 0.2899): 1315.6 ± 2.1 m/s | speed of sound ([2]; 283.15 K, x1 = 0.3996): 1318.4 ± 2.1 m/s | speed of sound ([2]; 283.15 K, x1 = 0.5017): 1324.5 ± 2.1 m/s | speed of sound ([2]; 283.15 K, x1 = 0.6007): 1333.5 ± 2.1 m/s | speed of sound ([2]; 283.15 K, x1 = 0.699): 1346.1 ± 2.1 m/s | speed of sound ([2]; 283.15 K, x1 = 0.7956): 1362.2 ± 2.1 m/s | speed of sound ([2]; 283.15 K, x1 = 0.8994): 1383.9 ± 2.1 m/s | speed of sound ([2]; 283.15 K, x1 = 0.9446): 1394.9 ± 2.1 m/s | speed of sound ([2]; 298.15 K, x1 = 0.0535): 1250 ± 2.1 m/s | speed of sound ([2]; 298.15 K, x1 = 0.1053): 1246.9 ± 2.1 m/s | speed of sound ([2]; 298.15 K, x1 = 0.1998): 1244.4 ± 2.1 m/s | speed of sound ([2]; 298.15 K, x1 = 0.3003): 1245 ± 2.1 m/s | speed of sound ([2]; 298.15 K, x1 = 0.4026): 1248.6 ± 2.1 m/s | speed of sound ([2]; 298.15 K, x1 = 0.5006): 1255.2 ± 2.1 m/s | speed of sound ([2]; 298.15 K, x1 = 0.5971): 1264.5 ± 2.1 m/s | speed of sound ([2]; 298.15 K, x1 = 0.7028): 1278.6 ± 2.1 m/s | speed of sound ([2]; 298.15 K, x1 = 0.8089): 1296.9 ± 2.1 m/s | speed of sound ([2]; 298.15 K, x1 = 0.9038): 1318.4 ± 2.1 m/s | speed of sound ([2]; 298.15 K, x1 = 0.9485): 1330.2 ± 2.1 m/s | speed of sound ([2]; 313.15 K, x1 = 0.0497): 1177.3 ± 2.1 m/s | speed of sound ([2]; 313.15 K, x1 = 0.102): 1174.3 ± 2.1 m/s | speed of sound ([2]; 313.15 K, x1 = 0.1944): 1172.4 ± 2.1 m/s | speed of sound ([2]; 313.15 K, x1 = 0.2926): 1173.7 ± 2.1 m/s | speed of sound ([2]; 313.15 K, x1 = 0.3973): 1178.3 ± 2.1 m/s | speed of sound ([2]; 313.15 K, x1 = 0.4969): 1185.8 ± 2.1 m/s | speed of sound ([2]; 313.15 K, x1 = 0.5992): 1196.7 ± 2.1 m/s | speed of sound ([2]; 313.15 K, x1 = 0.6988): 1211 ± 2.1 m/s | speed of sound ([2]; 313.15 K, x1 = 0.7966): 1229 ± 2.1 m/s | speed of sound ([2]; 313.15 K, x1 = 0.8972): 1251.3 ± 2.1 m/s | speed of sound ([2]; 313.15 K, x1 = 0.9505): 1264.9 ± 2.1 m/s
